Test results from patent publication US8580921B2, “Protein nanorings” (University of Minnesota, priority 2005, dated 2013).

B1: DHFR^2-1G: E. coli DHFR-DHFR fusion protein with 1 (G) amino acid linker (protein)
chain: MISLIAALAVDRVIGMENAMPWNLPADLAWFKRNTLNKPVIMGRHTWESIGRPLPGRKNIILSSQPGTDDRVTWVKSVDEAIAACGDVPEIMVIGGGRVYEQFLPKAQKLYLTHIDAEVEGDTHFPDYEPDDWESVFSEFHDADAQNSHSYCFEILERRGMISLIAALAVDRVIGMENAMPWNLPADLAWFKRNTLNKPVIMGRHTWESIGRPLPGRKNIILSSQPGTDDRVTWVKSVDEAIAACGDVPEIMVIGGGRVYEQFLPKAQKLYLTHIDAEVEGDTHFPDYEPDDWESVFSEFHDADAQNSHSYCFEILERR
modifications: left off: small tags and cut ends
notes: E. coli DHFR-DHFR fusion protein with 1 (G) amino acid linker
B2: DHFR^2-13: two wild-type E. coli DHFR modules separated by a 13 (GLG5LVPRGT) amino acid linker (protein)
chain: MISLIAALAVDRVIGMENAMPWNLPADLAWFKRNTLNKPVIMGRHTWESIGRPLPGRKNIILSSQPGTDDRVTWVKSVDEAIAACGDVPEIMVIGGGRVYEQFLPKAQKLYLTHIDAEVEGDTHFPDYEPDDWESVFSEFHDADAQNSHSYCFEILERRGLGGGGGLVPRGTMISLIAALAVDRVIGMENAMPWNLPADLAWFKRNTLNKPVIMGRHTWESIGRPLPGRKNIILSSQPGTDDRVTWVKSVDEAIAACGDVPEIMVIGGGRVYEQFLPKAQKLYLTHIDAEVEGDTHFPDYEPDDWESVFSEFHDADAQNSHSYCFEILERR
modifications: left off: small tags and cut ends
B3: DHFR^2-3: E. coli DHFR-DHFR fusion protein with 3 amino acid linker (GGT) (protein)
chain: MISLIAALAVDRVIGMENAMPWNLPADLAWFKRNTLNKPVIMGRHTWESIGRPLPGRKNIILSSQPGTDDRVTWVKSVDEAIAACGDVPEIMVIGGGRVYEQFLPKAQKLYLTHIDAEVEGDTHFPDYEPDDWESVFSEFHDADAQNSHSYCFEILERRGGTMISLIAALAVDRVIGMENAMPWNLPADLAWFKRNTLNKPVIMGRHTWESIGRPLPGRKNIILSSQPGTDDRVTWVKSVDEAIAACGDVPEIMVIGGGRVYEQFLPKAQKLYLTHIDAEVEGDTHFPDYEPDDWESVFSEFHDADAQNSHSYCFEILERR
modifications: left off: small tags and cut ends

Key:
Daudi cells = conditions: 2 hr incubation; cited from earlier work
[1] = tested on: 39 human tumor cell lines; conditions: cited from earlier work
[2] = given orally to mice; cited from earlier work
[3] = humans; cited from earlier work
[4] = SEC of isolated DHFR^2 oligomers after storage or dilution; format: physicochemical; conditions: oligomers with MTX^2-C9 isolated by SEC (dimers, tetramers, octamers), stored 2 weeks at 4° C.
Method: SEC was employed to initially assess the degree of DHFR^2 induced oligomerization by MTX^2. The purified DHFR^2-13 (10 uM) and MTX^2-C9 were mixed at a range of stoichiometries, allowed to equilibrate for one hour, and assayed by size exclusion chromatography on a Superdex G75 Column (Amersham).
Assemblies of this size, however, approach or exceed the exclusion limit of the G75 matrix, preventing definitive assignment of the molecular weight and oligomer number. The dimeric fraction increased at the expense of the larger oligomers with time, becoming the dominant species. […] For DHFR^2-3, tetramers were the dominant species, further increasing with time. […] In addition, in contrast to the expected result from linear oligomers, no observable change in composition was observed when oligomer samples were dilution to a concentration of 5 nM.

Molecule | IC50 (Daudi cells) | oligomer composition on re-injection after storage [4] | also measured
COc1cccc2c1C(=O)c1c(O)c3c(c(O)c1C2=O)C[C@@](O)(C(=O)CO)C[C@@H]3O[C@H]1C[C@H](N)[C@H](O)[C@H](C)O1 [doxorubicin] | 225 ± 35 nM |  | 
auristatin | 4.6 ± 4.3 nM |  | IC50 [1]: 3.2 ± 0.51 nM
COc1cc(Cc2cnc(N)nc2N)cc(OC)c1OC [trimethoprim] |  |  | LD50 [2]: greater than 3 grams/kg; half-life [3]: 11 h
B1 |  | no change in the oligomer composition | 
B2 |  | no change in the oligomer composition | 
B3 |  | no change in the oligomer composition | 
